In US8871753B2, “Macrocyclic compounds and their use as kinase inhibitors” (Incyte Corporation, priority 2008, dated 2014):
Counter-ions that a name gives are not always drawn.

Columns and labels:
Type in all cases: biochemical
[1] = target: T1, human JAK1 (a.a. 837-1142) (Homo sapiens, UniProt P23458); assay: In vitro JAK kinase assay (HTRF, phosphorylation of a biotinylated peptide), JAK1; details: Table D1; read-out: JAK1 IC50
T1 construct: human JAK1 (a.a. 837-1142); His tag (N); made in house; host or cells: insect cells (baculovirus)
How it was run: (§1)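 Phosphorylation of a biotinylated peptide by the JAK kinase domain, detected by HTRF with Eu-Py20 and SA-APC. ATP was 90 μM for JAK1, 30 μM for JAK2 and 3 μM for JAK3. Reactions ran 1 h at room temperature and were stopped with EDTA, followed by 40 min antibody binding.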

[2] = target: T2, human JAK2 (a.a. 828-1132) (Homo sapiens, UniProt O60674); assay: In vitro JAK kinase assay (HTRF, phosphorylation of a biotinylated peptide), JAK2; details: Table D1
T2 construct: JAK2 (a.a. 828-1132); His tag (N); made in house; host or cells: insect cells (baculovirus)
How it was run: as §1

[3] = target: T3, human JAK3 (a.a. 781-1124) (Homo sapiens, UniProt P52333); assay: In vitro JAK kinase assay (HTRF, phosphorylation of a biotinylated peptide), JAK3; details: Table D1
T3 construct: JAK3 (a.a. 781-1124); His tag (N); made in house; host or cells: insect cells (baculovirus)
How it was run: as §1

TYK2 = TYK2 (Homo sapiens, UniProt P29597); assay: TYK2 kinase inhibition (Table A1); details: Table D1
[4] = target: T4, Recombinant Human Anaplastic Lymphoma Kinase (Homo sapiens, UniProt Q9UM73); assay: ALK HTRF kinase assay; details: Table D1; 90 μM ATP
T4 construct: purchased Invitrogen, Carlsbad, Calif
How it was run: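 Recombinant human ALK phosphorylated a biotinylated synthetic peptide. Phosphotyrosine was detected by TR-FRET between a Eu-labelled anti-phosphotyrosine antibody and streptavidin-allophycocyanin. IC50 values came from fitting signal against inhibitor concentration to a four-parameter logistic equation with variable Hill slope.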

T4 sequence (Q9UM73 19-1620): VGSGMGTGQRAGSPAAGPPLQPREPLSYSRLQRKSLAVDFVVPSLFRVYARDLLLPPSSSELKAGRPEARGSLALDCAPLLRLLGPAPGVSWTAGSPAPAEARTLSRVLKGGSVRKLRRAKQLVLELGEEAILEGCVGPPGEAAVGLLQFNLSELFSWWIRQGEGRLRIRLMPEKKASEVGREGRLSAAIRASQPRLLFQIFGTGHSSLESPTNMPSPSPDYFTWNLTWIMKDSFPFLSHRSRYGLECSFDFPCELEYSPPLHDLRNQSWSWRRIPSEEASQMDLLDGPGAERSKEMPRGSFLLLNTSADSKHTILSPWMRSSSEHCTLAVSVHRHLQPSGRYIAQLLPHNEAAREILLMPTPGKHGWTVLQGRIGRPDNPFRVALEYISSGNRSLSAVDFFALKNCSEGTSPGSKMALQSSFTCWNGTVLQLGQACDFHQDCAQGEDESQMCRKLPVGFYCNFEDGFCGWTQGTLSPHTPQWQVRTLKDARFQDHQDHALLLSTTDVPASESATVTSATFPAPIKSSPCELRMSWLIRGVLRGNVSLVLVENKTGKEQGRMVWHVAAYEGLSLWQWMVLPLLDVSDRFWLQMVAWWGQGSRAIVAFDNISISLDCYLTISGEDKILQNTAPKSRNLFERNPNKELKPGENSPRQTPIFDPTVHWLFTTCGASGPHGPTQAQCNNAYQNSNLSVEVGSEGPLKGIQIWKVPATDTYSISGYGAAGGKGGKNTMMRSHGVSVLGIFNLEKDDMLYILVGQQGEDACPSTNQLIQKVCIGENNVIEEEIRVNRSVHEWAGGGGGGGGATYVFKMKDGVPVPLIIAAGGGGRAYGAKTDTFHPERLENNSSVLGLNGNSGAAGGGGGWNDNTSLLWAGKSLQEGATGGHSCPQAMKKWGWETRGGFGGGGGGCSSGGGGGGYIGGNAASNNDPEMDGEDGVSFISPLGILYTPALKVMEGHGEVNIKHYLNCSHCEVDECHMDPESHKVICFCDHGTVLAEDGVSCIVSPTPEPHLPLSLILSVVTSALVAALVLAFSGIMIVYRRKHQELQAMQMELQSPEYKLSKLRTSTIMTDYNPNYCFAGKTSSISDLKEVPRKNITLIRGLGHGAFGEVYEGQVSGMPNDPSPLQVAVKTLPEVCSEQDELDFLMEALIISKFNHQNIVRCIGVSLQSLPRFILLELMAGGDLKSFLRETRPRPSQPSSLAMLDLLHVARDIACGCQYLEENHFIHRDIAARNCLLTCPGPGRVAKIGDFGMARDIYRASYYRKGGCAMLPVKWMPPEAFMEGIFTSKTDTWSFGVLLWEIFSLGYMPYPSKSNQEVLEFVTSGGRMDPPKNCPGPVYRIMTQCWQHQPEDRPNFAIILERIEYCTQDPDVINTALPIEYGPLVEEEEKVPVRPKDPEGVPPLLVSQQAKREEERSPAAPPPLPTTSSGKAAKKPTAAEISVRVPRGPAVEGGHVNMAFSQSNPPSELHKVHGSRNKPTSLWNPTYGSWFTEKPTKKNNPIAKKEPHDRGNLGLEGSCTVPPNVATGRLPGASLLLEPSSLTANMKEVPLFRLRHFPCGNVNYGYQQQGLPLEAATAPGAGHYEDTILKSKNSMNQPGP
T3 sequence (P52333 781-1124): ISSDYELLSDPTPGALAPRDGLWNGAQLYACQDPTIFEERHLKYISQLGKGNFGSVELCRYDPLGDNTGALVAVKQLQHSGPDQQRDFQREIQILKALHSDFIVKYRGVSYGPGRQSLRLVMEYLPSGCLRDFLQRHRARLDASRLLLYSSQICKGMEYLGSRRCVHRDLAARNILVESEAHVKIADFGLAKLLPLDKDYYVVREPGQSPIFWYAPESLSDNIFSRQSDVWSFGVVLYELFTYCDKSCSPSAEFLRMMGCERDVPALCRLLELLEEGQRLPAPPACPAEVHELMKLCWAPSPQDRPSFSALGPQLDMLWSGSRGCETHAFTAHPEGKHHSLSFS
T1 sequence (P23458 849-1154): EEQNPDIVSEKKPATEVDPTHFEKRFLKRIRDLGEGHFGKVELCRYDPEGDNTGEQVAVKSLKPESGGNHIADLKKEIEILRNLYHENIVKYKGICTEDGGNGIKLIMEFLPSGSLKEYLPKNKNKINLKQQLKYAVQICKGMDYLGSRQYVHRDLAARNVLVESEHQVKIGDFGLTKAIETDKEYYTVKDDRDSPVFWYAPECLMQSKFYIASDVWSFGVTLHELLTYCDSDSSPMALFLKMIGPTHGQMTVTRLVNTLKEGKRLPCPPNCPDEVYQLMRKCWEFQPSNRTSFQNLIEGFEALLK
TYK2, sequence (P29597 whole entry): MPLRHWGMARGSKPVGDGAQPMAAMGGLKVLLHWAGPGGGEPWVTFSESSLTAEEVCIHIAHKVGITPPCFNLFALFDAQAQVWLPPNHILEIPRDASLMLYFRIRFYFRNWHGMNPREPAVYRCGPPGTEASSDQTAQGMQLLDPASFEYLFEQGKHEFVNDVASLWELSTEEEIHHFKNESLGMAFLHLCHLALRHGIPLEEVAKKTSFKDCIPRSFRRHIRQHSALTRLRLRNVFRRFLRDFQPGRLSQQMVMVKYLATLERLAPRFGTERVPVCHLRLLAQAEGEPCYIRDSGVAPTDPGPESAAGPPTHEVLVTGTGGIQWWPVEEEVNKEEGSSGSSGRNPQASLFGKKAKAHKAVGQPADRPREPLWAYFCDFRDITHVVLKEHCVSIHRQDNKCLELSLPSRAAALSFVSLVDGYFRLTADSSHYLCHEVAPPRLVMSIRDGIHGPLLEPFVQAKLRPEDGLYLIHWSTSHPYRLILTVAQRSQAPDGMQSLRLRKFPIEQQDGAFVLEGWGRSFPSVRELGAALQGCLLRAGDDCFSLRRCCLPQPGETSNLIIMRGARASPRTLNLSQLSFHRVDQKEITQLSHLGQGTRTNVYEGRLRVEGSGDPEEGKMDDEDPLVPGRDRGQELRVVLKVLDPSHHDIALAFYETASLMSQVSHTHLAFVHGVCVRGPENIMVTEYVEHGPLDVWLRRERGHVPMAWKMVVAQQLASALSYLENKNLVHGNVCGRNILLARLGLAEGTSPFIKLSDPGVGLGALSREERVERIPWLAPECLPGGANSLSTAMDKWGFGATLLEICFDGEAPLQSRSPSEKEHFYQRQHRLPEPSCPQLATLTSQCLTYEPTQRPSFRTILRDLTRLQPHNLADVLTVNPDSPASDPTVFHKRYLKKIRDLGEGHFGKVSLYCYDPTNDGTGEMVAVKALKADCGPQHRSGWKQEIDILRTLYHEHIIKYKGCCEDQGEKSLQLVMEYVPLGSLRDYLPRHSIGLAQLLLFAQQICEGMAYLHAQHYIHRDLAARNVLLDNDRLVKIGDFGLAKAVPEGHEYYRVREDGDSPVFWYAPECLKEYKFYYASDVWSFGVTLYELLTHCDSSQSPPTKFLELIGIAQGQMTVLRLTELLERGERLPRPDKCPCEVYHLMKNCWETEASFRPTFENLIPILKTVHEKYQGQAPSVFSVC
T2 sequence (O60674 828-1132): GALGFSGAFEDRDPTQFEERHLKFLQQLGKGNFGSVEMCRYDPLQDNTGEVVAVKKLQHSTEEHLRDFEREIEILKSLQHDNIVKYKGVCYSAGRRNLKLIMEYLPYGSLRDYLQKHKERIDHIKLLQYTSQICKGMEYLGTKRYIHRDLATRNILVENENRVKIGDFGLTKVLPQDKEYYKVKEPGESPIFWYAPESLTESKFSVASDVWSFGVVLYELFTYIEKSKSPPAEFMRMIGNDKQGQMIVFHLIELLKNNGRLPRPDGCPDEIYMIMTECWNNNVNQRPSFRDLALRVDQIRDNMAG

| SMILES | IC50 [1] | IC50 [2] | IC50 [3] | IC50 (TYK2) | IC50 [4] |
| --- | --- | --- | --- | --- | --- |
| Clc1cnc2nc1Nc1cccc(c1)OCCc1cc(cc(-c3ccncc3)c1)N2 [Example D25, 6-Chloro-19-pyridin-4-yl-14-oxa-2,4,8,23-tetraazatetracyclo[15.3.1.1(3,7).1(9,13)]tricosa-1(21),3(23),4,6,9(22),10,12,17,19-nonaene bis(trifluoroacetate)] | 1.1 nM | 0.3 nM | 8.8 nM | 2.1 nM | 110 nM |
| Clc1cnc2nc1Nc1cccc(c1)OCCc1cc(cc(-c3cccnc3)c1)N2 [Example D26, 6-Chloro-19-pyridin-3-yl-14-oxa-2,4,8,23-tetraazatetracyclo[15.3.1.1(3,7).1(9,13)]tricosa-1(21),3(23),4,6,9(22),10,12,17,19-nonaene bis(trifluoroacetate)] | 1.2 nM | 0.6 nM | 8.5 nM | 2.7 nM | 138 nM |
| Clc1cnc2nc1Nc1cccc(c1)OCCc1cc(cc(-c3ccnc(N4CCNCC4)c3)c1)N2 [Example D27, 6-Chloro-19-(2-piperazin-1-ylpyridin-4-yl)-14-oxa-2,4,8,23-tetraazatetracyclo[15.3.1.1(3,7).1(9,13)]tricosa-1(21),3(23),4,6,9(22),10,12,17,19-nonaene tris(trifluoroacetate)] | 1.5 nM | 0.3 nM | 3.5 nM | 3.9 nM | 32 nM |
| Clc1cnc2nc1Nc1cccc(c1)OCCc1cc(cc(-c3ccccc3)c1)N2 [Example D28, 6-Chloro-19-phenyl-14-oxa-2,4,8,23-tetraazatetracyclo[15.3.1.1(3,7).1(9,13)]tricosa-1(21),3(23),4,6,9(22),10,12,17,19-nonaene trifluoroacetate] | 6.2 nM | 5.2 nM | 53 nM | 25 nM | 525 nM |
| CS(=O)(=O)c1ccc(-c2cc3cc(c2)Nc2ncc(Cl)c(n2)Nc2cccc(c2)OCC3)cc1 [Example D29, 6-Chloro-19-[4-(methylsulfonyl)phenyl]-14-oxa-2,4,8,23-tetraazatetracyclo[15.3.1.1(3,7).1(9,13)]tricosa-1(21),3(23),4,6,9(22),10,12,17,19-nonaene trifluoroacetate] | 2 nM | 0.5 nM | 14 nM | 3.4 nM | 238 nM |
| Cc1n[nH]c(C)c1-c1cc2cc(c1)Nc1ncc(Cl)c(n1)Nc1cccc(c1)OCC2 [Example D30, 6-Chloro-19-(3,5-dimethyl-1H-pyrazol-4-yl)-14-oxa-2,4,8,23-tetraazatetracyclo[15.3.1.1(3,7).1(9,13)]tricosa-1(21),3(23),4,6,9(22),10,12,17,19-nonaene bis(trifluoroacetate)] | 4.1 nM | 0.6 nM | 49 nM | 15 nM | 157 nM |
| Clc1cnc2nc1Nc1cccc(c1)OCCc1cc(cc(-c3cnc(N4CCNCC4)nc3)c1)N2 [Example D31, 6-Chloro-19-(2-piperazin-1-ylpyrimidin-5-yl)-14-oxa-2,4,8,23-tetraazatetracyclo[15.3.1.1(3,7).1(9,13)]tricosa-1(21),3(23),4,6,9(22),10,12,17,19-nonaene tris(trifluoroacetate)] | 0.9 nM | 0.2 nM | 6.7 nM | 2 nM | 104 nM |
| Clc1cnc2nc1Nc1cccc(c1)OCCc1cc(cc(-c3ccc(N4CCNCC4)nc3)c1)N2 [Example D33, 6-Chloro-19-(6-piperazin-1-ylpyridin-3-yl)-14-oxa-2,4,8,23-tetraazatetracyclo[15.3.1.1(3,7).1(9,13)]tricosa-1(21),3(23),4,6,9(22),10,12,17,19-nonaene tris(trifluoroacetate)] | 1.8 nM | 0.7 nM | 12 nM | 4 nM | 108 nM |
| CC(=O)N1CCN(c2cc(-c3cc4cc(c3)Nc3ncc(Cl)c(n3)Nc3cccc(c3)OCC4)ccn2)CC1 [Example D35, 19-[2-(4-Acetylpiperazin-1-yl)pyridin-4-yl]-6-chloro-14-oxa-2,4,8,23-tetraazatetracyclo[15.3.1.1(3,7).1(9,13)]tricosa-1(21),3(23),4,6,9(22),10,12,17,19-nonaene bis(trifluoroacetate)] | 0.7 nM | 0.4 nM | 7.7 nM | 4.3 nM | 150 nM |

Results, then the compound that gave them:

| IC50 [1] | IC50 [2] | IC50 [3] | IC50 (TYK2) | IC50 [4] | SMILES |
| --- | --- | --- | --- | --- | --- |
| 2.2 nM | 2.2 nM | 11 nM | 5 nM | 732 nM | O=S1(=O)CCOc2cccc(c2)Nc2ncc(Cl)c(n2)Nc2cccc1c2 [Example D14, 6-Chloro-17-oxa-14-thia-2,4,8,24-tetraazatetracyclo[16.3.1.1(3,7).1(9,13)]tetracosa-1(22),3(24),4,6,9(23),10,12,18,20-nonaene 14,14-dioxide trifluoroacetate] |
| 93 nM | 61 nM | 135 nM | 88 nM | > 10000 nM | Clc1cnc2nc1Nc1cccc(c1)OCCSc1cccc(c1)N2 [Example D15, 6-Chloro-14-oxa-17-thia-2,4,8,24-tetraazatetracyclo[16.3.1.1(3,7).1(9,13)]tetracosa-1(22),3(24),4,6,9(23),10,12,18,20-nonaene trifluoroacetate] |
| 63 nM | 32 nM | 165 nM | 77 nM | > 1000 nM | Clc1cnc2nc1Nc1cccc(c1)CNc1cccc(c1)N2 [Example D17, 6-Chloro-2,4,8,15,22-pentaazatetracyclo[14.3.1.1(3,7).1(9,13)]docosa-1(20),3(22),4,6,9(21),10,12,16,18-nonaene bis(trifluoroacetate)] |
| 5.4 nM | 6.6 nM | 24 nM | 19 nM | 327 nM | Clc1cnc2nc1Nc1cccc(c1)SCCc1cccc(c1)N2 [Example D18, 6-Chloro-14-thia-2,4,8,23-tetraazatetracyclo[15.3.1.1(3,7).1(9,13)]tricosa-1(21),3(23),4,6,9(22),10,12,17,19-nonaene trifluoroacetate] |
| 150 nM | 16 nM | 39 nM | 149 nM | 562 nM | Clc1cnc2nc1Nc1cccc(c1)CCSc1cccc(c1)N2 [Example D19, 6-Chloro-16-thia-2,4,8,23-tetraazatetracyclo[15.3.1.1(3,7).1(9,13)]tricosa-1(21),3(23),4,6,9(22),10,12,17,19-nonaene hydrochloride] |
| 41 nM | 32 nM | 88 nM | 102 nM | 598 nM | Clc1cnc2nc1Nc1cccc(c1)CSCc1cccc(c1)N2 [Example D20, 6-Chloro-15-thia-2,4,8,23-tetraazatetracyclo[15.3.1.1(3,7).1(9,13)]tricosa-1(21),3(23),4,6,9(22),10,12,17,19-nonaene trifluoroacetate] |
| 8.1 nM | 13 nM | 45 nM | 27 nM | 984 nM | Clc1cnc2nc1Nc1cccc(c1)COCc1cccc(c1)N2 [Example D21, 6-Chloro-15-oxa-2,4,8,23-tetraazatetracyclo[15.3.1.1(3,7).1(9,13)]tricosa-1(21),3(23),4,6,9(22),10,12,17,19-nonaene trifluoroacetate] |
| 4.2 nM | 7.9 nM | 41 nM | 28 nM | 489 nM | Clc1cnc2nc1Nc1cccc(c1)OCCc1cc(Br)cc(c1)N2 [Example D22, 19-Bromo-6-chloro-14-oxa-2,4,8,23-tetraazatetracyclo[15.3.1.1(3,7).1(9,13)]tricosa-1(21),3(23),4,6,9(22),10,12,17,19-nonaene trifluoroacetate] |
| 5 nM | 6 nM | 20 nM | 16 nM | 1370 nM | O=S1(=O)CCc2cccc(c2)Nc2ncc(Cl)c(n2)Nc2cccc1c2 [Example D24, 6-chloro-14-thia-2,4,8,23-tetraazatetracyclo[15.3.1.1(3,7).1(9,13)]tricosa-1(21),3(23),4,6,9(22),10,12,17,19-nonaene 14,14-dioxide trifluoroacetate] |
| 41 nM | 43 nM | 84 nM | 45 nM | > 1000 nM | Clc1cnc2nc1Nc1cccc(c1)CSCCc1cccc(c1)N2 [Example D32, 6-Chloro-15-thia-2,4,8,24-tetraazatetracyclo[16.3.1.1(3,7).1(9,13)]tetracosa-1(22),3(24),4,6,9(23),10,12,18,20-nonaene trifluoroacetate] |
| 123 nM | 91 nM | 136 nM | 211 nM | > 1000 nM | Clc1cnc2nc1Nc1cccc(c1)CCSCc1cccc(c1)N2 [Example D34, 6-Chloro-16-thia-2,4,8,24-tetraazatetracyclo[16.3.1.1(3,7).1(9,13)]tetracosa-1(22),3(24),4,6,9(23),10,12,18,20-nonaene trifluoroacetate] |
